The values below come from US7528148B2, “Pyrazolo[3,4-B]pyridine compounds, and their use as phosphodiesterase inhibitors” (Glaxo Group Limited, priority 2002, dated 2009).

The structures appear in SMILES notation.

T1 sequence (Q07343 1-564 isoform Q07343-2): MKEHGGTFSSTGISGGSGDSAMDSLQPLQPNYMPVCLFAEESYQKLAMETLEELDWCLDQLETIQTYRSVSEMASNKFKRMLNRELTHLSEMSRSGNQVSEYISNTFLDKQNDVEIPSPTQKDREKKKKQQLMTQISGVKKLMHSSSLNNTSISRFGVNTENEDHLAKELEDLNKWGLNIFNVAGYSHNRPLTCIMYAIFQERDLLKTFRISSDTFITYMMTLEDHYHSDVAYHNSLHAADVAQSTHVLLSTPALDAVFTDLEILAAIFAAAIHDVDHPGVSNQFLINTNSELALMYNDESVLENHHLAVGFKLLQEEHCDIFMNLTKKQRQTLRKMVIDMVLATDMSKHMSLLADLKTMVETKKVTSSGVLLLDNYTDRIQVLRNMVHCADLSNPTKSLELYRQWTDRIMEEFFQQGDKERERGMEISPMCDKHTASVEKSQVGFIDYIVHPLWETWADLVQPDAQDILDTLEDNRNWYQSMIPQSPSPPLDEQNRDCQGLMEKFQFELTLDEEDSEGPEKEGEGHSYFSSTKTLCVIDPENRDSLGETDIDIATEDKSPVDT

This test has as its target T1, PDE4B (human recombinant) (Homo sapiens, UniProt Q07343).
T1 construct: made in house; host or cells: Saccharomyces cerevisiae strain GL62 (PDE-deficient)
Description: PDE4B inhibition, radioactive SPA or IMAP fluorescence polarisation (FP) assay. The note with it: one reading or average of ca. 2-6 readings, accurate only to about ±0.5 log unit, read-out: PDE4B pIC50 (±about 0.5) (converted). Type of test: biochemical. An excerpt: Human recombinant PDE4B, in particular the 2B splice variant thereof (HSPDE4B2B), is disclosed in WO 94/20079 and also M. M. McLaughlin et al., “A low Km, rolipram-sensitive, cAMP-specific phosphodiesterase from human brain: cloning and expression of cDNA, biochemical characterisation of recombinant protein, and tissue distribution of mRNA”, J. Biol. Chem., 1993, 268, 6470-6476. Human recombinant PDE4B was expressed in the PDE-deficient yeast Saccharomyces cerevisiae strain GL62. 100,000×g supernatant fractions of yeast cell lysates were used for PDE4B assays and inhibitor studies.
The ability of compounds to inhibit catalytic activity at PDE4B or 4D (human recombinant), PDE3 (from bovine aorta) or PDE5 (human recombinant) or PDE6 (from bovine retina) was determined by Scintillation Proximity Assay (SPA) in 96-well format. Test compounds (preferably as a solution in DMSO, e.g. about 2 microlitre (ul) volume of DMSO solution) were preincubated at ambient temperature (room temperature, e.g. 19-23° C.) in Wallac Isoplates (code 1450-514) with PDE enzyme in 50 mM Tris-HCl buffer pH 7.5, 8.3 mM MgCl2, 1.7 mM EGTA, 0.05% (w/v) bovine serum albumin for 10-30 minutes (usually 30 minutes). The enzyme concentration was adjusted so that no more than 20% hydrolysis of the substrate defined below occurred in control wells without compound, during the incubation. For PDE3, PDE4B and PDE4D assays, [5′,8-^3H]Adenosine 3′,5′-cyclic phosphate (Amersham Pharmacia Biotech, code TRK.559; or Amersham Biosciences UK Ltd, Pollards Wood, Chalfont St Giles, Buckinghamshire HP8 4SP, UK) was added to give 0.05 uCi per well and ˜10 nM final concentration. For the PDE5 and PDE6 assay [8-^3H]Guanosine 3′,5′-cyclic phosphate (Amersham Pharmacia Biotech, code TRK.392) was added to give 0.05 uCi per well and ˜36 nM final concentration. Plates, preferably containing approx. 100 ul volume of assay mixture, were mixed on an orbital shaker for 5 minutes and incubated at ambient temperature for 1 hour. Phosphodiesterase SPA beads (Amersham Pharmacia Biotech, code RPNQ 0150) were added (˜1 mg per well) to terminate the assay. Plates were sealed and shaken and allowed to stand at ambient temperature for 35 minutes to 1 hour (preferably 35 minutes) to allow the beads to settle. Bound radioactive product was measured using a WALLAC TRILUX 1450 Microbeta scintillation counter. For inhibition curves, 10 concentrations ([…]) of each compound were assayed. Curves were analysed using ActivityBase and XLfit (ID Businesss Solutions Limited, 2 Ocean Court, Surrey Research Park, Guildford, Surrey GU2 7QB, United Kindgom) Results were expressed as pIC50 values.
The ability of compounds to inhibit catalytic activity at PDE4B (human recombinant) or PDE4D (human recombinant) was determined by IMAP Fluorescence Polarisation (FP) assay (IAP Explorer kit, available from Molecular Devices Corporation, Sunnydale, Calif., USA; Molecular Devices code: R8062) in 384-well format. The IMAP FP assay is able to measure PDE activity in an homogenous, non-radioactive assay format. The FP assay uses the ability of immobilised trivalent metal cations, coated onto nanoparticles (tiny beads), to bind the phosphate group of Fl-AMP that is produced on the hydrolysis of fluorescein-labelled (Fl) cyclic adenosine mono-phosphate (Fl-cAMP) to the non-cyclic Fl-AMP form. […] Binding of Fl-AMP product to the beads (coated with the immobilised trivalent cations) slows the rotation of the bound Fl-AMP and leads to an increase in the fluorescence polarisation ratio of parallel to perpendicular light. Inhibition of the PDE reduces/inhibits this signal increase. […]
For orientation: In fluorescence polarisation assays a small probe gives low polarisation when free and higher when bound to something large.
For the compound `CCn1ncc2c(NC3CCOCC3)c(-c3nnc(C)o3)cnc21` [Example 14, 1-Ethyl-5-(5-methyl-1,3,4-oxadiazol-2-yl)-N-(tetrahydro-2H-pyran-4-yl)-1H-pyrazolo[3,4-b]pyridin-4-amine], the IC50 was 25.1 nM.
The figure for `CCn1ncc2c(NC3CCOCC3)c(-c3nnc(C(C)(C)C)o3)cnc21` [Example 17, 5-(S-Tert-butyl-1,3,4-oxadiazol-2-yl)-1-ethyl-N-(tetrahydro-2H-pyran-4-yl)-1H-pyrazolo[3,4-b]pyridin-4-amine] is 0.794 to 31.6 nM; for `CCn1ncc2c(NC3CCOCC3)c(-c3nnc(CS(C)(=O)=O)o3)cnc21` [Example 23, 1-Ethyl-5-{5-[(methylsulfonyl)methyl]-1,3,4-oxadiazol-2-yl}-N-(tetrahydro-2H-pyran-4-yl)-1H-pyrazolo[3,4-b]pyridin-4-amine] it is 7.94 nM; for `CCn1ncc2c(NC3CCOCC3)c(-c3nnc(CN4CCN(C)CC4)o3)cnc21` [Example 35, 1-Ethyl-5-{5-[(4-methylpiperazin-1-yl)methyl]-1,3,4-oxadiazol-2-yl}-N-(tetrahydro-2H-pyran-4-yl)-1H-pyrazolo[3,4-b]pyridin-4-amine] it is 31.6 nM.
As for `CCn1ncc2c(NC3CCOCC3)c(-c3nnc(C4CCOCC4)o3)cnc21` [Example 38, 1-Ethyl-N-(tetrahydro-2H-pyran-4-yl)-5-[5-(tetrahydro-2H-pyran-4-yl)-1,3,4-oxadiazol-2-yl]-1H-pyrazolo[3,4-b]pyridin-4-amine], the IC50 is 0.794 to 31.6 nM.
